{"source": "patent US20230303497A1", "about": "“BENZYLAMINE OR BENZYL ALCOHOL DERIVATIVE AND USES THEREOF” (CHENGDU HYPERWAY PHARMACEUTICALS CO., LTD, priority 2020, published 2023)"}
{"biological_target": "human NaV1.8 ion channel (Homo sapiens (Human), UniProt Q9Y5Y9)", "sequence (Q9Y5Y9 whole entry)": "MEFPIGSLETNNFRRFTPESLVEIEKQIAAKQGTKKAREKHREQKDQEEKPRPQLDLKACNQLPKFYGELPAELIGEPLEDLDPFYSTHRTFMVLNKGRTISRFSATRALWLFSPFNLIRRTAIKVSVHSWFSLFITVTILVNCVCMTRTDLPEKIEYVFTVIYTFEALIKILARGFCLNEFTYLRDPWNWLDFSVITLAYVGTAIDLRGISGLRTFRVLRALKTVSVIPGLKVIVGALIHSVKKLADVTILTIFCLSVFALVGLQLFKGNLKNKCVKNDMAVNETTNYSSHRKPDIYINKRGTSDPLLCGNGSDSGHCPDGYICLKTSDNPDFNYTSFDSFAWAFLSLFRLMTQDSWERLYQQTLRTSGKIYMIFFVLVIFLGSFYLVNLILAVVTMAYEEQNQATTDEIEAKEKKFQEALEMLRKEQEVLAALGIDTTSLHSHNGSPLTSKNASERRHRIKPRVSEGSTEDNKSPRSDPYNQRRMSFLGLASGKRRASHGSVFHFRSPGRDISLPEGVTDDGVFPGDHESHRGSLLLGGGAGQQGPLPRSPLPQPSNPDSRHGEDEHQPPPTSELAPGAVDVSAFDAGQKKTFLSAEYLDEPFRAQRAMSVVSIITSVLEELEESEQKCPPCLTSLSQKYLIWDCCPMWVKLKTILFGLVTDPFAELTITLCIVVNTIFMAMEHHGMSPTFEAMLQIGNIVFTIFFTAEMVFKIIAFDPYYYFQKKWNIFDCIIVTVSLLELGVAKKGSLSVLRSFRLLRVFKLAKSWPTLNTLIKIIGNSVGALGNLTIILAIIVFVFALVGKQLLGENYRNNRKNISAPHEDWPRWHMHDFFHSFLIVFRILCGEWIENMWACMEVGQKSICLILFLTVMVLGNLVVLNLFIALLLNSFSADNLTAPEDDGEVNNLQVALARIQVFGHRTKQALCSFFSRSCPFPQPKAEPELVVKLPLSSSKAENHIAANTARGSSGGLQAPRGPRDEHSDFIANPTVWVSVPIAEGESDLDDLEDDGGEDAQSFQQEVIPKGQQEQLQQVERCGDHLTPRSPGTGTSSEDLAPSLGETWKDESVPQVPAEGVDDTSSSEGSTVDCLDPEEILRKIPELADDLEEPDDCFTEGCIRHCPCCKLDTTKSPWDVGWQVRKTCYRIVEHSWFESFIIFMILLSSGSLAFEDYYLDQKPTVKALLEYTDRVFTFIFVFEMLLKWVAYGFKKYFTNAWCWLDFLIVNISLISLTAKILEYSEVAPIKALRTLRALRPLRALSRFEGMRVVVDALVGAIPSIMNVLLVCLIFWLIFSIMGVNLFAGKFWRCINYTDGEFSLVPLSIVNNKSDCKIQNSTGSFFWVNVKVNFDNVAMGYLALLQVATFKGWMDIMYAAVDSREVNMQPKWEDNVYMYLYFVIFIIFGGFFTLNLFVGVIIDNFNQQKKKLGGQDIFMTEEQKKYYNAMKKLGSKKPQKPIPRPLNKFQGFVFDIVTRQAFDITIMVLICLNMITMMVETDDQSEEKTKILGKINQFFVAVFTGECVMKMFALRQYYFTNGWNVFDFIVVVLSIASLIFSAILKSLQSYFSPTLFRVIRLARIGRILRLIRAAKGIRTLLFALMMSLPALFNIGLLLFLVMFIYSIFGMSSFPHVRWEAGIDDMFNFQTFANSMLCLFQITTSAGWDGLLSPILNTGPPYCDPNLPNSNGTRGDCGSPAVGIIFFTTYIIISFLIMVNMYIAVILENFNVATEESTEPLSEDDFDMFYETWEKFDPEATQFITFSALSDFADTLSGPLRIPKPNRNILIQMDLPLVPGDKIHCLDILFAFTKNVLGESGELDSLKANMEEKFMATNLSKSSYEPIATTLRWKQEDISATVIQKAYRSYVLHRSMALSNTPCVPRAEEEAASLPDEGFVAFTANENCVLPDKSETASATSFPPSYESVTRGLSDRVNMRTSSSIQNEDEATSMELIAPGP", "assay": "Compound inhibition activity on human NaV1.8 ion channel in HEK293 cells (whole-cell patch clamp)", "type": "cell-based", "details": "100 nm concentration; HEK293 cells, resting protocol", "experimental": "(§1) Test Case 1: Compound Inhibition Activity on Human NaV1.8 Ion Channel in HEK293 Cells\n(§2) The final concentrations of the test compounds are prepared on the same day and then dissolved in extracellular solution. […] The intracellular solution (mM) contains: Aspartic acid, 140; MgCl2, 2; EGTA 11; HEPES, 10; pH 7.2 (CsOH titration). All test solutions contain 1 μM TTX.\n(§3) The test solution are stored at a concentration of 3 mM in dimethyl sulfoxide (DMSO). The solutions will be dissolved in extracellular solution on the day of testing and prepared to the required concentration.\n(§4) All experiments were performed at room temperature. Each cell itself is taken as the corresponding control.\n(§5) At least one cell is tested per concentration.\n(§6) HEK293 cell steady expressing NaV1.8 ion channel.\n(§7) The intracellular fluid (mM) contains: Aspartic acid, 140; MgCl2, 2; EGTA 11; HEPES, 10; pH 7.2 (CsOH titration). […] Electrodes are drawn with PC-10 (Narishige, Japan). Recording is performed with whole-cell diaphragm clamp.\n(§8) The cells are clamped at −80 mV and then depolarized to 10 mV with a sustained 10 ms square wave to give a Nav1.8 current. This procedure is repeated every 5 seconds."}
{"smiles": "Cc1cc(F)ccc1Oc1cc(C2CC2)c(C(F)(F)F)cc1C(=O)Nc1ccc(F)c(C(N)CCO)c1", "note": "(centres unmarked) [Example 3, N-(3-(1-Amino-3-hydroxypropyl)-4-fluorophenyl)-4-cyclopropyl-2-(4-fluoro-2-methylphenoxy)-5-(trifluoromethyl) benzamide]", "Inhibition ratio of Nav1.8 (Activity of inhibition)": "A (A >= 80)"}
{"smiles": "Cc1cc(F)ccc1Oc1ccc(C(F)(F)F)cc1C(=O)Nc1ccc(F)c(C2CCCN2)c1", "note": "(centres unmarked) [Example 15, 2-(4-fluoro-2-methylphenoxy)-N-(4-fluoro-3-(pyrrolidin-2-yl)phenyl)-5-(trifluoromethyl) benzamide]", "Inhibition ratio of Nav1.8 (Activity of inhibition)": "C (50 >C >= 20)"}
{"smiles": "Cc1cc(F)ccc1Oc1ccc(C(F)(F)F)cc1C(=O)Nc1ccc(F)c(C2CCC(C(N)=O)N2)c1", "note": "(centres unmarked) [Example 16, 5-(2-fluoro-5-(2-(4-fluoro-2-methylphenoxy)-5-(trifluoromethyl)benzamido)phenyl) pyrrolidine-2-carboxacylamino]", "Inhibition ratio of Nav1.8 (Activity of inhibition)": "D (D < 20)"}
{"smiles": "Cc1cc(F)ccc1Oc1ccc(C(F)(F)F)cc1C(=O)Nc1ccc(F)c(CC(N)C(N)=O)c1", "note": "(centres unmarked) [Example 17, N-(3-(2,3-Diamino-3-oxopropyl)-4-fluorophenyl)-2-(4-fluoro-2-methylphenoxy)-5-(trifluoromethyl) benzamide]", "Inhibition ratio of Nav1.8 (Activity of inhibition)": "D (D < 20)"}
{"biological_target": "human NaV1.8 ion channel (Homo sapiens (Human), UniProt Q9Y5Y9)", "assay": "Compound inhibition activity on human NaV1.8 ion channel in HEK293 cells (whole-cell patch clamp)", "type": "cell-based", "details": "100 nm concentration; HEK293 cells, resting protocol; read-out: Inhibition ratio of Nav1.8 (Activity of inhibition)", "experimental": "as §1, §2, §3, §4, §5, §6, §7, §8", "units": {"inhibition at 0.1 µM": "%"}}
{"smiles": "Cc1cc(F)ccc1Oc1ccc(C(F)(F)F)cc1C(=O)Nc1ccc(F)c(C(N)CC(=O)O)c1", "note": "(centres unmarked) [Example 2, 3-Amino-3-(2-fluoro-5-(2-(4-fluoro-2-methylphenoxy)-5-(trifluoromethyl)benzamido)phenyl) propanoic acid]", "inhibition at 0.1 µM": "< 20"}
{"smiles": "COCCC(N)c1cc(NC(=O)c2cc(C(F)(F)F)c(C3CC3)cc2Oc2ccc(F)cc2C)ccc1F", "note": "(centres unmarked) [Example 5, N-(3-(1-Amino-3-methoxypropyl)-4-fluorophenyl)-4-cyclopropyl-2-(4-fluoro-2-methylphenoxy)-5-(trifluoromethyl) benzamide]", "inhibition at 0.1 µM": "50 to 80"}
{"smiles": "CC(=O)NC(CCO)c1cc(NC(=O)c2cc(C(F)(F)F)c(C3CC3)cc2Oc2ccc(F)cc2C)ccc1F", "note": "(centres unmarked) [Example 6, N-(3-(1-Acetylamino-3-hydroxypropyl)-4-fluorophenyl)-4-cyclopropyl-2-(4-fluoro-2-methylphenoxy)-5-(trifluoromethyl) benzamide]", "inhibition at 0.1 µM": "50 to 80"}
{"smiles": "CNC(CCO)c1cc(NC(=O)c2cc(C(F)(F)F)c(C3CC3)cc2Oc2ccc(F)cc2C)ccc1F", "note": "(centres unmarked) [Example 7, 4-Cyclopropyl-2-(4-fluoro-2-methylphenoxy)-N-(4-fluoro-3-(3-hydroxy-1-(methylamino)propyl)phenyl)-5-(trifluoromethyl) benzamide]", "inhibition at 0.1 µM": "> 80"}
{"smiles": "Cc1cc(F)ccc1Oc1cc(C2CC2)c(C(F)(F)F)cc1C(=O)Nc1ccc(F)c(C(CCO)N(C)C)c1", "note": "(centres unmarked) [Example 8, 4-Cyclopropyl-N-(3-(1-(dimethylamino)-3-hydroxypropyl)-4-fluorophenyl)-2-(4-fluoro-2-methylphenoxy)-5-(trifluoromethyl) benzamide]", "inhibition at 0.1 µM": "> 80"}
{"smiles": "Cc1cc(F)ccc1Oc1cc(C2CC2)c(C(F)(F)F)cc1C(=O)Nc1ccc(F)c(C(N)C(N)=O)c1", "note": "(centres unmarked) [Example 9, 4-Cyclopropyl-N-(3-(1,2-diamino-2-oxoethyl)-4-fluorophenyl)-2-(4-fluoro-2-methylphenoxy)-5-(trifluoromethyl) benzamide]", "inhibition at 0.1 µM": "> 80"}
{"smiles": "CNC(C(N)=O)c1cc(NC(=O)c2cc(C(F)(F)F)c(C3CC3)cc2Oc2ccc(F)cc2C)ccc1F", "note": "(centres unmarked) [Example 10, N-(3-(2-amino-1-(methylamino)-2-oxoethyl)-4-fluorophenyl)-4-cyclopropyl-2-(4-fluoro-2-methylphenoxy)-5-(trifluoromethyl) benzamide]", "inhibition at 0.1 µM": "> 80"}
{"smiles": "Cc1cc(F)ccc1Oc1cc(C2CC2)c(C(F)(F)F)cc1C(=O)Nc1ccc(F)c(C(N)CO)c1", "note": "(centres unmarked) [Example 11, N-(3-(1-Amino-2-hydroxyethyl)-4-fluorophenyl)-4-cyclopropyl-2-(4-fluoro-2-methylphenoxy)-5-(trifluoromethyl) benzamide]", "inhibition at 0.1 µM": "> 80"}
{"smiles": "Cc1cc(F)ccc1Oc1ccc(C(F)(F)F)cc1C(=O)Nc1ccc(F)c(CN)c1", "note": "[Example 12, N-(3-(Aminomethyl)-4-fluorophenyl)-2-(4-fluoro-2-methylphenoxy)-5-(trifluoromethyl) benzamide]", "inhibition at 0.1 µM": "50 to 80"}
{"smiles": "Cc1cc(F)ccc1Oc1ccc(C(F)(F)F)cc1C(=O)Nc1ccc(F)c(CNCC(N)=O)c1", "note": "[Example 13]", "inhibition at 0.1 µM": "20 to 50"}
{"smiles": "Cc1cc(F)ccc1Oc1ccc(C(F)(F)F)cc1C(=O)Nc1ccc(F)c(C(C)N)c1", "note": "(centres unmarked) [Example 14, N-(3-(1-aminoethyl)-4-fluorophenyl)-2-(4-fluoro-2-methylphenoxy)-5-(trifluoromethyl) benzamide]", "inhibition at 0.1 µM": "50 to 80"}
{"smiles": "Cc1cc(F)ccc1Oc1ccc(C(F)(F)F)cc1C(=O)Nc1ccc(F)c(C2NCCNC2=O)c1", "note": "(centres unmarked) [Example 18, 2-(4-Fluoro-2-methylphenoxy)-N-(4-fluoro-3-(3-oxopiperazin-2-yl)phenyl)-5-(trifluoromethyl) benzamide]", "inhibition at 0.1 µM": "< 20"}
{"smiles": "Cc1cc(F)ccc1Oc1cc(C2CC2)c(C(F)(F)F)cc1C(=O)Nc1ccc(F)c(C(N)C2CCNC2=O)c1", "note": "(centres unmarked) [Example 19, N-(3-(amino (2-oxopyrrolidin-3-yl)methyl)-4-fluorophenyl)-4-cyclopropyl-2-(4-fluoro-2-methylphenoxy)-5-(trifluoromethyl) benzamide]", "inhibition at 0.1 µM": "> 80"}
{"smiles": "Cc1cc(F)ccc1Oc1cc(C2CC2)c(C(F)(F)F)cc1C(=O)Nc1ccc(F)c(C(N)CC(C)O)c1", "note": "(centres unmarked) [Example 20, N-(3-(1-Amino-3-hydroxybutyl)-4-fluorophenyl)-4-cyclopropyl-2-(4-fluoro-2-methylphenoxy)-5-(trifluoromethyl) benzamide]", "inhibition at 0.1 µM": "50 to 80"}
{"smiles": "Cc1cc(F)ccc1Oc1cc(C2CC2)c(C(F)(F)F)cc1C(=O)Nc1ccc(F)c(C(N)C(F)CO)c1", "note": "(centres unmarked) [Example 22, N-(3-(1-Amino-2-fluoro-3-hydroxypropyl)-4-fluorophenyl)-4-cyclopropyl-2-(4-fluoro-2-methylphenoxy)-5-(trifluoromethyl) benzamide]", "inhibition at 0.1 µM": "> 80"}
{"smiles": "Cc1cc(F)ccc1Oc1cc(C2CC2)c(C(F)(F)F)cc1C(=O)Nc1ccc(F)c(C(N)CCN)c1", "note": "(centres unmarked) [Example 24, 4-Cyclopropyl-N-(3-(1,3-diaminopropyl)-4-fluorophenyl)-2-(4-fluoro-2-methylphenoxy)-5-(trifluoromethyl) benzamide]", "inhibition at 0.1 µM": "> 80"}
{"smiles": "Cc1cc(F)ccc1Oc1ccc(C(F)(F)F)cc1C(=O)Nc1ccc(F)c(C(O)C2CCNC2=O)c1", "note": "(centres unmarked) [Example 25, 2-(4-fluoro-2-methylphenoxy)-N-(4-fluoro-3-(hydroxyl (2-oxopyrrolidin-3-yl)methyl)phenyl)-5-(trifluoromethyl) benzamide]", "inhibition at 0.1 µM": "20 to 50"}
{"smiles": "Cc1cc(F)ccc1Oc1ccc(C(F)(F)F)cc1C(=O)Nc1ccc(F)c(C(O)C(N)=O)c1", "note": "(centres unmarked) [Example 26, N-(3-(2-Amino-1-hydroxy-2-oxoethyl)-4-fluorophenyl)-2-(4-fluoro-2-methylphenoxy)-5-(trifluoromethyl) benzamide]", "inhibition at 0.1 µM": "20 to 50"}
{"biological_target": "human NaV1.8 ion channel (Homo sapiens (Human), UniProt Q9Y5Y9)", "assay": "Compound inhibition activity on human NaV1.8 ion channel in HEK293 cells (whole-cell patch clamp)", "type": "cell-based", "details": "HEK293, read-out: Inhibition ratio of Nav1.8 (Activity of inhibition)", "experimental": "as §1, §2, §3, §4, §5, §6, §7, §8", "units": {"inhibition at 0.1 µM": "%"}}
{"smiles": "Cc1cc(F)ccc1Oc1ccc(C(F)(F)F)cc1C(=O)Nc1ccc(F)c(C(N)C(C)C(N)=O)c1", "note": "(centres unmarked) [Example 4, N-(3-(1,3-Diamino-2-methyl-3-oxopropyl)-4-fluorophenyl)-2-(4-fluoro-2-methylphenoxy)-5-(trifluoromethyl) benzamide]", "inhibition at 0.1 µM": "50 to 80"}
